{"source": "patent US9717745B2", "about": "“Pharmaceutical compositions and their use for treatment of cancer and autoimmune diseases” (ZHEJIANG DTRM BIOPHARMA CO. LTD., priority 2015, dated 2017)", "key": {"WSU-DLCL2 tumor cells [1]": {"system": "WSU-DLCL2 tumor cells", "test": "Inhibition of tumor growth in vivo, resistant WSU-DLCL2 xenograft SCID mouse model", "parameters": "species or system mice", "conditions": "FIG. 8", "protocol": "(§1) Inhibition Study of Tumor Growth In Vivo:\n(§2) SCID mice or nude mice (weighing about 18 g at the beginning of the experiment) were randomly divided into groups by the software in order to achieve close average weights between groups and control the bias within the allowable range. The mice were injected BTK cell lines (TMD-8, WSU-DLCL2 and DoHH-2) for tumor formation. Inhibitors were administered orally once or twice a day, a total of 14 days, 21 days or 28 days. Body weights and tumor volume were recorded.\n(§3) Xenograft Tumor Models Inoculated with TMD-8, or DoHH2, or WSU-DLCL2 Tumor Cell Lines:\nTMD-8 is a sensitive human diffuse large B-cell lymphoma cell line, and DoHH2 is a more difficult to treat human follicular lymphoma cell line, while WSU-DLCL2 is a multi-drug resistant (MDR) human non-Hodgkin's lymphoma cell line.\nThe TMD-8, DoHH2, WSU-DLCL2 tumor cells were maintained in vitro as a suspension culture in RPMI-1640 medium supplemented with 10% heat inactivated fetal calf serum at 37° C. in an atmosphere of 5% CO2 in air. The tumor cells were routinely subcultured twice weekly. The cells growing in an exponential growth phase were harvested and counted for tumor inoculation. […] Animal body weight and tumor volume were measured every 2- or 3-days throughout the treatment."}, "[2]": {"test": "Adjuvant-induced arthritis (AA/AIA) model in female Lewis rats", "assay_type": "in vivo", "conditions": "for Paw volume of AA rats model (in words): FIG. 13; for Paw volume (Mean): 11 (3 mg/kg) BID positive control, oral from day 13", "protocol": "Adjuvant-Induced Arthritis AA Model:\nThe combination of Compounds 3 and 14 was evaluated in adjuvant-induced arthritis (AA) model in female Lewis rats. All rats except the normal group were immunized with complete Freund's adjuvant (CFA) subcutaneously at the left hind paw to induce arthritis at day 0. At 6 days post immunization, some rats started to display clinical symptoms of arthritis, e.g. erythema and swelling. […] The treatments were given orally for 3 consecutive weeks. The body weight, paw volume and clinical score were monitored every other day after day 13 throughout the course of the study. At the terminal point, right hind paws were collected for histopathology analysis with H.E. staining."}, "[3]": {"test": "Collagen-induced arthritis (CIA) model in male DBA/1 mice", "assay_type": "in vivo", "parameters": "Clinical Score (Mean) / Pathological score: Inflammatory cell infiltration / Pathological score: Pannus growth / Pathological score: Cartilage injury / Pathological score: Bone resorption / Pathological score: Total: scale not given here", "conditions": "for Clinical score of CIA mice model (in words): FIG. 15; for Clinical Score (Mean): Dexamethasone 0.2 mg/kg", "protocol": "Collagen-Induced Arthritis (CIA) Model:\nThe combination of Compounds 3 and 12 was evaluated in collagen induced arthritis (CIA) mouse model in Male DBA/1 mice. The animals were divided into 8 groups, including a normal, a vehicle, […] treatment groups: All animals (except the normal group) were immunized with 200 μg of bovine collagen (type II) on day 0 and day 21. Seven days (day 28) after boosting immunization, animals started to show symptoms of disease with an average clinical score around 1. […] The treatments were given orally for 2 consecutive weeks. Body weight and clinical score were monitored through the study (recorded three times a week started after second immunization). At the end of the study, animals were euthanized and both hind paws were collected for histopathology analysis."}, "TMD-8 cell line": {"system": "TMD-8 cell line", "test": "Inhibition assay of tumor cell activity (cell viability), TMD-8", "assay_type": "cell-based, human", "conditions": "48 hours incubation", "protocol": "Inhibition Assay of Tumor Cell Activity:\nTumor cells (TMD-8, DoHH2 and WSU-DLCL2) were transferred and attached to 96-well plates. After one night, blank buffer and selected concentrations (0.01 nM-100 μM) of the test compound solution were added. After 48 hours incubation, CellTiter-Go was added to lyse the cells. Recording luminescent signal and calculate the percent inhibition of cell viability."}, "TMD-8 tumor cells": {"system": "TMD-8 tumor cells", "test": "Inhibition of tumor growth in vivo, TMD-8 lymphoma xenograft SCID mouse model", "conditions": "TMD-8 mice model, oral", "protocol": "as §1, §2, §3\nTMD-8 is a sensitive human diffuse large B-cell lymphoma cell line, and DoHH2 is a more difficult to treat human follicular lymphoma cell line, while WSU-DLCL2 is a multi-drug resistant (MDR) human non-Hodgkin's lymphoma cell line. Drug combination therapies provide better efficacies in all three tumor models than single targeted agent alone.\nThe TMD-8, DoHH2, WSU-DLCL2 tumor cells were maintained in vitro as a suspension culture in RPMI-1640 medium supplemented with 10% heat inactivated fetal calf serum at 37° C. in an atmosphere of 5% CO2 in air. The tumor cells were routinely subcultured twice weekly. The cells growing in an exponential growth phase were harvested and counted for tumor inoculation. Each mouse was inoculated subcutaneously at the right flank with the tumor cells (10×10^6) in 0.2 ml of PBS with Matrigel (1:1) for tumor development. The treatments were started after the average tumor size reached approximately 100-200 mm^3. Each group consisted of 6-10 tumor-bearing mice. The testing article (vehicle, compound or combination) was orally administrated to the mice according to the predetermined doses for 14-days or 21-days. Animal body weight and tumor volume were measured every 2- or 3-days throughout the treatment."}, "[4]": {"test": "Collagen-induced arthritis (CIA) model in male DBA/1 mice", "assay_type": "in vivo", "parameters": "scale not given here", "conditions": "CIA study, 14 alone, 0.15 mg/kg QD, Mean ± SEM"}, "WSU-DLCL2 tumor cells [5]": {"system": "WSU-DLCL2 tumor cells", "conditions": "oral gavage to mice, 480 mg/kg/day, Knutson et al. 2014, cited from earlier work"}, "[6]": {"conditions": "AA study, 11, 3 mg/kg, Mean ± SEM"}, "[7]": {"conditions": "CIA study, Left hind paw, Dexamethasone 0.2 mg/kg QD, Mean ± SEM"}, "[8]": {"conditions": "CIA study, Right hind paw, Dexamethasone 0.2 mg/kg QD, Mean ± SEM"}}, "note": "Like-named read-outs stand apart in the source and are kept apart here. Marks after values point to notes of the source that are not given here.", "data": [{"smiles": "C=CC(=O)N1CC[C@@H](n2nc(-c3ccc(Oc4c(F)c(F)cc(F)c4F)cc3F)c3c(N)ncnc32)C1", "note": "[Compound 3, 1-((R)-3-(4-amino-3-(2-fluoro-4-(2,3,5,6-tetrafluorophenoxy)phenyl)-1H-pyrazolo[3,4-d]pyrimidin-1-yl)pyrrolidin-1-yl)prop-2-en-1-one]", "values": [{"measurement": "Efficacy in WSU-DLCL2 non-Hodgkin's lymphoma mice model (in words)", "setting": "WSU-DLCL2 tumor cells [1]", "result": "in line with the efficacy of Ibrutinib"}, {"measurement": "Paw volume of AA rats model (in words)", "setting": "[2]", "result": "treatment effects are absent"}, {"measurement": "Clinical score of CIA mice model (in words)", "setting": "[3]", "result": "treatment effects are absent"}]}, {"smiles": "C[C@@H]1CCN(C(=O)CC#N)C[C@@H]1N(C)c1ncnc2[nH]ccc12", "note": "[Compound 11, Tofactinib]", "values": [{"measurement": "Pathological score: Bone resorption", "setting": "[2]; [6]", "result": "0.5 ± 0.22"}, {"measurement": "Pathological score: Cartilage injury", "setting": "[2]; [6]", "result": "0.2 ± 0.20"}, {"measurement": "Pathological score: Inflammatory cell infiltration", "setting": "[2]; [6]", "result": "1.9 ± 0.18"}, {"measurement": "Pathological score: Pannus growth", "setting": "[2]; [6]", "result": "0.4 ± 0.22"}, {"measurement": "Pathological score: Total", "setting": "[2]; [6]", "result": "3.0 ± 0.73"}, {"measurement": "Paw volume (Mean)", "setting": "[2]; Day 0", "result": 1.00, "unit": "mL"}, {"measurement": "Paw volume (Mean)", "setting": "[2]; Day 17", "result": "1.54*** mL"}, {"measurement": "Paw volume (Mean)", "setting": "[2]; Day 26", "result": "1.37*** mL"}, {"measurement": "Paw volume (Mean)", "setting": "[2]; Day 28", "result": "1.33*** mL"}, {"measurement": "Paw volume (Mean)", "setting": "[2]; Day 31", "result": "1.23*** mL"}, {"measurement": "Paw volume (Mean)", "setting": "[2]; Day 33", "result": "1.23*** mL"}, {"measurement": "Inhibition of individual compound on TMD-8 cell line (Inh %) AVG", "setting": "TMD-8 cell line; 0.01 uM", "result": 6.02, "unit": "%"}, {"measurement": "Inhibition of individual compound on TMD-8 cell line (Inh %) AVG", "setting": "TMD-8 cell line; 0.1 uM", "result": 1.31, "unit": "%"}, {"measurement": "Inhibition of individual compound on TMD-8 cell line (Inh %) AVG", "setting": "TMD-8 cell line; 1 uM", "result": 6.66, "unit": "%"}]}, {"smiles": "CO[C@H]1C[C@@H]2CC[C@@H](C)[C@@](O)(O2)C(=O)C(=O)N2CCCC[C@H]2C(=O)O[C@H]([C@H](C)C[C@@H]2CC[C@@H](OCCO)[C@H](OC)C2)CC(=O)[C@H](C)/C=C(\\C)[C@@H](O)[C@@H](OC)C(=O)[C@H](C)C[C@H](C)/C=C/C=C/C=C/1C", "note": "[Compound 14, Everolimus]", "values": [{"measurement": "Pathological score: Bone resorption", "setting": "[2]; AA study, 14 alone, 0.5 mg/kg, Mean ± SEM", "result": "3.5 ± 0.17"}, {"measurement": "Paw volume of AA rats model (in words)", "setting": "[2]", "result": "treatment effects are absent"}, {"measurement": "Clinical score of CIA mice model (in words)", "setting": "[3]", "result": "treatment effects are absent"}, {"measurement": "Days of treatment to tumor disappearance / complete tumor regression", "setting": "TMD-8 tumor cells", "result": 15, "unit": "days"}, {"measurement": "Tumor disappearance (in words)", "setting": "TMD-8 tumor cells", "result": "complete disappearance of tumor grafts"}, {"measurement": "Tumor rebound after treatment was stopped", "setting": "TMD-8 tumor cells", "result": "tumor rebounded"}, {"measurement": "Tumor rebound after treatment was stopped", "setting": "TMD-8 tumor cells; listed as Everolimus", "result": "quickly rebounded"}, {"measurement": "Pathological score: Bone resorption", "setting": "[4]; Left hind paw", "result": "1.80 ± 0.61"}, {"measurement": "Pathological score: Bone resorption", "setting": "[4]; Right hind paw", "result": "2.00 ± 0.67"}]}, {"smiles": "CN(Cc1cnc2nc(N)nc(N)c2n1)c1ccc(C(=O)N[C@@H](CCC(=O)O)C(=O)O)cc1", "note": "[Compound 18, Methotrexate]", "values": [{"measurement": "Inhibition of individual compound on TMD-8 cell line (Inh %) AVG", "setting": "TMD-8 cell line; 0.01 uM", "result": "−8.45", "unit": "%"}, {"measurement": "Inhibition of individual compound on TMD-8 cell line (Inh %) AVG", "setting": "TMD-8 cell line; 0.1 uM", "result": 32.04, "unit": "%"}, {"measurement": "Inhibition of individual compound on TMD-8 cell line (Inh %) AVG", "setting": "TMD-8 cell line; 1 uM", "result": 39.55, "unit": "%"}]}, {"smiles": "C[C@@H]1C[C@H]2[C@@H]3CCC4=CC(=O)C=C[C@]4(C)[C@@]3(F)[C@@H](O)C[C@]2(C)[C@@]1(O)C(=O)CO", "note": "[Dexamethasone]", "values": [{"measurement": "Pathological score: Total", "setting": "[3]; CIA study, Dexamethasone 0.2 mg/kg QD, Mean ± SEM", "result": "0.00 ± 0.00"}, {"measurement": "Pathological score: Bone resorption", "setting": "[3]; [7]", "result": "0.00 ± 0.00"}, {"measurement": "Pathological score: Cartilage injury", "setting": "[3]; [7]", "result": "0.00 ± 0.00"}, {"measurement": "Pathological score: Inflammatory cell infiltration", "setting": "[3]; [7]", "result": "0.00 ± 0.00"}, {"measurement": "Pathological score: Pannus growth", "setting": "[3]; [7]", "result": "0.00 ± 0.00"}, {"measurement": "Pathological score: Bone resorption", "setting": "[3]; [8]", "result": "0.00 ± 0.00"}, {"measurement": "Pathological score: Cartilage injury", "setting": "[3]; [8]", "result": "0.00 ± 0.00"}, {"measurement": "Pathological score: Inflammatory cell infiltration", "setting": "[3]; [8]", "result": "0.00 ± 0.00"}, {"measurement": "Pathological score: Pannus growth", "setting": "[3]; [8]", "result": "0.00 ± 0.00"}, {"measurement": "Clinical Score (Mean)", "setting": "[3]; CIA study, day 21 after first immunization", "result": 0.00}, {"measurement": "Clinical Score (Mean)", "setting": "[3]; CIA study, day 32", "result": "0.60***"}, {"measurement": "Clinical Score (Mean)", "setting": "[3]; CIA study, day 39", "result": "0.40***"}, {"measurement": "Clinical Score (Mean)", "setting": "[3]; CIA study, day 42", "result": "0.20***"}]}, {"smiles": "CCN(c1cc(-c2ccc(CN3CCOCC3)cc2)cc(C(=O)NCc2c(C)cc(C)[nH]c2=O)c1C)C1CCOCC1", "note": "[EPZ-6438]", "values": [{"measurement": "Tumor growth inhibition in WSU-DLCL tumor model (in words)", "setting": "WSU-DLCL2 tumor cells [5]", "result": "achieved a similar effect"}, {"measurement": "Tumor growth inhibition in WSU-DLCL tumor model (in words)", "setting": "WSU-DLCL2 tumor cells [5]; listed as EZ-6438", "result": "inhibited tumor growth"}]}]}
